{"source": "EPA's ToxValDB 9.5", "key": {"[1]": {"system": "Rattus norvegicus", "conditions": "oral, gavage"}, "[2]": {"system": "Mus musculus", "conditions": "oral, CD1; for NOAEL: diet, M/F"}, "[3]": {"system": "Canidae", "conditions": "chronic, oral, M/F, Dog Other"}, "[4]": {"system": "Canidae", "conditions": "chronic; duration: 2 years; oral; diet; Dog Other; Central nervous system: Convulsions + Liver: Lesions"}, "[5]": {"system": "Megascops sp.", "conditions": "oral"}, "[6]": {"system": "Mus musculus", "conditions": "repeat dose other; oral"}, "[7]": {"system": "Canidae", "conditions": "chronic; duration: 2 years; oral; diet; F; Beagle; neurological, hepatic"}, "[8]": {"system": "Mus musculus", "conditions": "subchronic; duration: 13 weeks; oral; gavage; Liver: Lesions"}, "[9]": {"system": "Rattus norvegicus", "conditions": "subchronic, M/F"}, "[10]": {"system": "Mus musculus", "conditions": "oral, M/F"}, "[11]": {"system": "Rattus norvegicus", "conditions": "for LC50 / LD50: acute"}, "[12]": {"system": "Cavia porcellus", "conditions": "acute; Inhalation; Guinea Pig"}, "[13]": {"system": "Mus musculus", "conditions": "acute"}, "[14]": {"system": "Cavia sp.", "conditions": "acute; Inhalation; Harley"}, "[15]": {"system": "Oryctolagus sp.", "conditions": "dermal; for LD50: acute"}, "[16]": {"system": "Gallus sp.", "conditions": "developmental; duration: 5 days; injection; White Leghorn"}, "[17]": {"system": "Chrysomus sp.", "conditions": "oral"}, "[18]": {"system": "Rattus norvegicus", "conditions": "subchronic; duration: 90 days; inhalation; M/F; Wistar; hepatic"}, "[19]": {"system": "Mus musculus", "conditions": "developmental; duration: 7 days; oral; gavage; M/F; albino; developmental"}, "[20]": {"system": "Mus musculus", "test": "LD0; higher = less toxic", "conditions": "acute; oral"}, "[21]": {"conditions": "duration: 2 years, diet, reduced body weight gain, and increased liver and kidney weight"}, "[22]": {"conditions": "histological lesions in liver, occasional convulsions"}, "[23]": {"conditions": "short-term, duration: 28 days, M, Sprague-Dawley, Functional Observational Battery: No urination (week1) + Body Weight Changes: decrease + Food Consumption: decrease + Urinalysis: Volume …"}, "[24]": {"conditions": "reproduction developmental, oral, diet, Sprague-Dawley, generation: F0"}, "[25]": {"conditions": "reproduction developmental, oral, diet, Sprague-Dawley, generation: F1"}, "[26]": {"conditions": "reproduction developmental, oral, diet, Sprague-Dawley, generation: F2"}, "[27]": {"conditions": "subchronic, duration: 3 months, oral, diet"}, "[28]": {"conditions": "subchronic, duration: 90 days, oral, diet"}, "[29]": {"conditions": "chronic, duration: 104 weeks, hepatic necrosis"}, "[30]": {"conditions": "chronic, duration: 24 months, oral, diet, Sprague-Dawley"}, "[31]": {"conditions": "subchronic, duration: 8 weeks, oral, diet, Sprague-Dawley"}}}
{"compound": "c1ccc(Nc2ccccc2)cc1", "note": "[Diphenylamine]", "values": [{"measurement": "NOEL", "setting": "[1]; short-term, duration: 28 days, M/F, Fischer 344, Clinical Observation: Dark brown colored bedding + Body Weight Changes: Weight gain decrease + Food Consumption: decrease + Hematology: RBC …", "value": 111, "unit": "mg/kg-day"}, {"measurement": "NOAEL", "setting": "[2]; subchronic, duration: 90 days", "value": 2.1, "unit": "mg/kg-day"}, {"measurement": "LEL", "setting": "[3]; [21]", "value": 25, "unit": "mg/kg-day"}, {"measurement": "NOEL", "setting": "[3]; [21]", "value": 2.5, "unit": "mg/kg-day"}]}
{"compound": "ClC1=C(Cl)[C@]2(Cl)[C@@H]3[C@H]4C[C@H]([C@@H]5O[C@H]45)[C@@H]3[C@@]1(Cl)C2(Cl)Cl", "note": "[Endrin]", "values": [{"measurement": "NOEL", "setting": "[4]", "value": 0.025, "unit": "mg/kg-day"}, {"measurement": "LOAEL", "setting": "[3]; [22]", "value": 0.05, "unit": "mg/kg-day"}, {"measurement": "NOEL", "setting": "[3]; [22]", "value": 0.025, "unit": "mg/kg-day"}, {"measurement": "LOAEL", "setting": "[5]", "value": 0.1, "unit": "mg/kg-day"}, {"measurement": "NOAEL", "setting": "[5]", "value": 0.01, "unit": "mg/kg-day"}, {"measurement": "LOAEL", "setting": "[6]", "value": 0.92, "unit": "mg/kg-day"}, {"measurement": "NOAEL", "setting": "[6]", "value": 0.092, "unit": "mg/kg-day"}, {"measurement": "NOAEL", "setting": "[7]", "value": 0.025, "unit": "mg/kg-day"}]}
{"compound": "c1ccoc1", "note": "[Furan]", "values": [{"measurement": "NOAEL", "setting": "[8]", "value": 1.4, "unit": "mg/kg-day"}, {"measurement": "NOEL", "setting": "[1]; subchronic, duration: 13 weeks, M/F, Fischer 344, Deaths + Body Weight Changes: decrease + Absolute Organ Weight: Right kidney increase, Liver increase, Thymus decrease + Relative Organ …", "value": "< 4", "unit": "mg/kg-day"}, {"measurement": "LOAEL", "setting": "[9]; oral, hepatic lesions", "value": 4, "unit": "mg/kg-day"}, {"measurement": "NOAEL", "setting": "[10]; subchronic, hepatic lesions", "value": 2, "unit": "mg/kg-day"}]}
{"compound": "CN(C)C=O", "note": "[N,N-Dimethylformamide]", "values": [{"measurement": "NOAEL", "setting": "[2]; chronic, duration: 119 days, hepatic", "value": 96, "unit": "mg/kg-day"}]}
{"compound": "CN(C)N=O", "note": "[N-Nitrosodimethylamine]", "values": [{"measurement": "NOAEL", "setting": "[1]; [23]", "value": "< 0.8", "unit": "mg/kg-day"}, {"measurement": "NOEL", "setting": "[1]; [23]", "value": "< 0.8", "unit": "mg/kg-day"}, {"measurement": "LOAEL", "setting": "[2]; developmental, duration: 100 days, drinking water, F, developmental", "value": 0.025, "unit": "mg/kg-day"}]}
{"compound": "CCC(C)(CCC(C)C)C(=O)O", "note": "(stereo not given) [Neodecanoic acid]", "values": [{"measurement": "LC50", "setting": "[11]; Inhalation, Wistar", "value": "> 511", "unit": "mg/m3"}, {"measurement": "LD50", "setting": "[11]; Inhalation, Wistar", "value": "> 511", "unit": "mg/m3"}, {"measurement": "LC50", "setting": "[11]; inhalation, Wistar", "value": "> 3", "unit": "µg/mL"}, {"measurement": "LD50", "setting": "[11]; inhalation, Wistar", "value": "> 3", "unit": "mg/L"}, {"measurement": "NOAEL", "setting": "[11]; [24]", "value": 1500, "unit": "ppm"}, {"measurement": "NOAEL", "setting": "[11]; [25]", "value": 1500, "unit": "ppm"}, {"measurement": "NOAEL", "setting": "[11]; [26]", "value": 1500, "unit": "ppm"}, {"measurement": "LOAEL", "setting": "[11]; [27]", "value": 144, "unit": "mg/kg-day"}, {"measurement": "NOAEL", "setting": "[11]; [27]", "value": 48, "unit": "mg/kg-day"}, {"measurement": "LD50", "setting": "[12]", "value": "> 511", "unit": "mg/m3"}, {"measurement": "LD50", "setting": "[13]; Inhalation, Swiss", "value": "> 511", "unit": "mg/m3"}, {"measurement": "LC50", "setting": "[13]; Inhalation, Swiss albino", "value": "> 511", "unit": "mg/m3"}, {"measurement": "LC50", "setting": "[13]; inhalation, Swiss", "value": "> 3", "unit": "µg/mL"}, {"measurement": "LD50", "setting": "[13]; inhalation, Swiss", "value": "> 3", "unit": "mg/L"}, {"measurement": "LC50", "setting": "[14]", "value": "> 511", "unit": "mg/m3"}, {"measurement": "LD50", "setting": "[14]", "value": "> 511", "unit": "mg/m3"}, {"measurement": "LD50", "setting": "[15]", "value": "> 3160", "unit": "mg/kg"}, {"measurement": "LD50", "setting": "[15]; occlusive", "value": "> 3160", "unit": "mg/kg"}, {"measurement": "NOAEL", "setting": "[15]; repeat dose other, M", "value": 2280, "unit": "mg/kg-day"}]}
{"compound": "CCCCCCCCCc1ccc(OP(Oc2ccc(CCCCCCCCC)cc2)Oc2ccc(CCCCCCCCC)cc2)cc1", "note": "[Nonylphenolphosphite(3:1)]", "values": [{"measurement": "LD50", "setting": "[11]; dermal, semiocclusive, RAI f1", "value": "> 2000", "unit": "mg/kg"}, {"measurement": "LD50", "setting": "[11]; injection, Intraperitoneal, RAI f1", "value": "> 1000", "unit": "mg/kg"}, {"measurement": "NOAEL", "setting": "[11]; developmental, duration: 4 weeks, oral, gavage, Sprague-Dawley", "value": 1000, "unit": "mg/kg-day"}, {"measurement": "NOAEL", "setting": "[11]; reproduction developmental, duration: 2 years, oral, diet, generation: F1", "value": 3300, "unit": "ppm"}, {"measurement": "NOAEL", "setting": "[11]; reproduction developmental, duration: 4 weeks, oral, gavage, F, Sprague-Dawley", "value": 1000, "unit": "mg/kg-day"}, {"measurement": "NOAEL", "setting": "[11]; reproduction developmental, duration: 4 weeks, oral, gavage, M, Sprague-Dawley", "value": 200, "unit": "mg/kg-day"}, {"measurement": "NOAEL", "setting": "[11]; reproduction developmental, duration: 4 weeks, oral, gavage, Sprague-Dawley, generation: F0", "value": 200, "unit": "mg/kg-day"}, {"measurement": "NOAEL", "setting": "[11]; reproduction developmental, duration: 4 weeks, oral, gavage, Sprague-Dawley, generation: F1", "value": 200, "unit": "mg/kg-day"}, {"measurement": "NOAEL (% diet)", "setting": "[11]; subchronic, duration: 12 weeks, oral, diet", "value": 1}, {"measurement": "LOAEL (% diet)", "setting": "[11]; [28]", "value": 5}, {"measurement": "NOAEL (% diet)", "setting": "[11]; [28]", "value": 1}, {"measurement": "LD50", "setting": "[13]; oral, gavage", "value": "> 10000", "unit": "mg/kg"}, {"measurement": "NOAEL", "setting": "[16]", "value": 5, "unit": "mg"}, {"measurement": "LD50", "setting": "[15]; semiocclusive, New Zealand", "value": "> 2000", "unit": "mg/kg"}]}
{"compound": "ClC1=C(Cl)C2(Cl)C3C(Cl)C(Cl)CC3C1(Cl)C2(Cl)Cl", "note": "(stereo not given) [Technical chlordane]", "values": [{"measurement": "NOAEL", "setting": "[9]; inhalation, hepatic effects", "value": 1, "unit": "mg/m3"}, {"measurement": "LOAEL", "setting": "[10]; [29]", "value": 0.75, "unit": "mg/kg-day"}, {"measurement": "NOAEL", "setting": "[10]; [29]", "value": 0.15, "unit": "mg/kg-day"}, {"measurement": "LOAEL", "setting": "[6]", "value": 9.2, "unit": "mg/kg-day"}, {"measurement": "NOAEL", "setting": "[6]", "value": 4.6, "unit": "mg/kg-day"}, {"measurement": "LOAEL", "setting": "[17]", "value": 10.7, "unit": "mg/kg-day"}, {"measurement": "NOAEL", "setting": "[17]", "value": 2.14, "unit": "mg/kg-day"}, {"measurement": "NOAEL", "setting": "[18]", "value": 0.1, "unit": "mg/m3"}, {"measurement": "LOAEL", "setting": "[19]", "value": 1, "unit": "mg/kg-day"}]}
{"compound": "O=C(Nc1ccc(Cl)cc1)Nc1ccc(Cl)c(Cl)c1", "note": "[Triclocarban]", "values": [{"measurement": "LD0", "setting": "[20]", "value": "> 5000", "unit": "mg/kg"}, {"measurement": "LD50", "setting": "[11]; oral, gavage, Sprague-Dawley", "value": "> 50100", "unit": "mg/kg"}, {"measurement": "LOAEL", "setting": "[11]; [30]", "value": 75, "unit": "mg/kg-day"}, {"measurement": "NOAEL", "setting": "[11]; [30]", "value": 25, "unit": "mg/kg-day"}, {"measurement": "NOAEL", "setting": "[11]; developmental, oral, diet, Sprague-Dawley", "value": "> 3000", "unit": "ppm"}, {"measurement": "NOAEL", "setting": "[11]; reproduction developmental, oral, diet, F, Sprague-Dawley", "value": "> 3000", "unit": "ppm"}, {"measurement": "NOAEL", "setting": "[11]; [24]", "value": 3000, "unit": "ppm"}, {"measurement": "NOAEL", "setting": "[11]; [25]", "value": 1000, "unit": "ppm"}, {"measurement": "NOAEL", "setting": "[11]; [26]", "value": 3000, "unit": "ppm"}, {"measurement": "LOAEL", "setting": "[11]; [31]", "value": 250, "unit": "mg/kg-day"}, {"measurement": "NOAEL", "setting": "[11]; [31]", "value": 75, "unit": "mg/kg-day"}, {"measurement": "LD50", "setting": "[13]; injection, Intraperitoneal", "value": 2100, "unit": "mg/kg"}, {"measurement": "LD50", "setting": "[15]; occlusive, New Zealand", "value": "> 10000", "unit": "mg/kg"}]}
